Source: PubChem BioAssay AID222 (DTP/NCI, 2004)
Values joined by “and” are separate entries in the source; they are usually repeats but may differ in a detail not shown here. Equal entries are not always repeated. Toxic doses and inconclusive results are not listed. Starred links: 1 amine or outer side, 2 acyl side, 3 side chain; linkers in the order of their positions; H or OH if unused. Positions of bridges follow the written chain, without caps; N, C: chain ends. Non-standard residues stand in square brackets, D forms with d. Residues, ends and D or L forms follow the SMILES beside them. Chains are numbered I, II in the order given. Actinocin(1to9) = Cc1c2oc3c(C)ccc(C(=O)[*:2])c3nc-2c(C(=O)[*:1])c(N)c1=O; NMeV = CN[CH](C(=O)O)C(C)C; Aze = O=C(O)[CH]1CCN1; Sar = CNCC(=O)O

Test system: C57BL/6 mice, intracerebral ependymoblastoma, median survival T/C
Experiment: NCI In Vivo Anticancer Drug Screen. Data for tumor model Ependymoblastoma (intracerebral) in C57BL/6 mice
Details: endpoint: median survival time, higher = longer survival
Experimental: The antitumor activity of compounds was measured in mice bearing transplantable tumors. Survival or tumor size were measured and the results are expressed as the measurement made in the treated group (T) divided by the measurement made in the vehicle treated control group (C). The tumor model used in this assay is Ependymoblastoma (intracerebral) in C57BL/6 mice

[1] = dose: 8.0 mg/kg/injection, schedule: Q01DX005 (ip), vehicle: Klucel (hydroxypropylcellulose) (HPC)
[2] = dose: 1.0 mg/kg/injection, schedule: Q01DX005 (ip), vehicle: Klucel (hydroxypropylcellulose) (HPC)
[3] = dose: 4.0 mg/kg/injection, schedule: Q01DX005 (ip), vehicle: Klucel (hydroxypropylcellulose) (HPC)
[4] = dose: 16.0 mg/kg/injection, schedule: Q01DX001 (oral), vehicle: Klucel (hydroxypropylcellulose) (HPC)
[5] = dose: 32.0 mg/kg/injection, schedule: Q01DX001 (oral), vehicle: Klucel (hydroxypropylcellulose) (HPC)
[6] = dose: 64.0 mg/kg/injection, schedule: Q01DX001 (oral), vehicle: Klucel (hydroxypropylcellulose) (HPC)
[7] = dose: 128.0 mg/kg/injection, schedule: Q01DX001 (oral), vehicle: Klucel (hydroxypropylcellulose) (HPC)
[8] = dose: 256.0 mg/kg/injection, schedule: Q01DX001 (oral), vehicle: Klucel (hydroxypropylcellulose) (HPC)

In the case of Clc1ccc(C(c2ccc(Cl)cc2)C(Cl)(Cl)Cl)cc1, the T/C [1] is reported as 92 % of control, the T/C (dose: 16.0 mg/kg/injection, schedule: Q01DX005 (ip), vehicle: Klucel (hydroxypropylcellulose) (HPC)) is reported as 101 % of control and the T/C (dose: 32.0 mg/kg/injection, schedule: Q01DX005 (ip), vehicle: Klucel (hydroxypropylcellulose) (HPC)) is reported as 96 % of control.

For O=C1c2c(O)ccc(O)c2C(=O)c2c(NCCNCCO)ccc(NCCNCCO)c21, the T/C (dose: 1.0 mg/kg/injection, schedule: Q01DX005 (ip), vehicle: saline with Tween-80) was 102 % of control, the T/C (dose: 2.0 mg/kg/injection, schedule: Q01DX005 (ip), vehicle: saline with Tween-80) was 96 % of control and the T/C (dose: 4.0 mg/kg/injection, schedule: Q01DX005 (ip), vehicle: saline with Tween-80) was 106 % of control.

With O=NN(CCCl)C(=O)NC1CCC(=O)NC1=O (stereo not drawn) the T/C (dose: 0.5 mg/kg/injection, schedule: Q01DX005 (ip), vehicle: Klucel (hydroxypropylcellulose) (HPC)) was 103 % of control, the T/C (dose: 0.5 mg/kg/injection, schedule: Q01DX005 (ip), vehicle: suspension in saline) was 118 % of control and the T/C (dose: 0.62 mg/kg/injection, schedule: Q01DX001 (ip), vehicle: other) was 100 % of control. For the same molecule, the T/C [2] was 100 % of control, the T/C (dose: 1.0 mg/kg/injection, schedule: Q01DX005 (ip), vehicle: suspension in saline) was 114 % of control and the T/C (dose: 1.25 mg/kg/injection, schedule: Q01DX001 (ip), vehicle: other) was 101 % of control. The T/C (dose: 1.75 mg/kg/injection, schedule: Q01DX001 (ip), vehicle: other) was 104 % of control, the T/C (dose: 2.0 mg/kg/injection, schedule: Q#A X002 (ip), vehicle: saline) was 100 % of control and 111 % of control and the T/C (dose: 2.5 mg/kg/injection, schedule: Q01DX001 (ip), vehicle: other) was 100 % of control. The T/C (dose: 3.5 mg/kg/injection, schedule: Q01DX001 (ip), vehicle: other) was 102 % of control and 104 % of control, the T/C (dose: 3.5 mg/kg/injection, schedule: Q01DX001 (ip), vehicle: saline with Tween-80) was 95 % of control and the T/C (dose: 4.0 mg/kg/injection, schedule: Q01DX001 (ip), vehicle: saline with Tween-80) was 106 % of control. The T/C [3] was 290 % of control, the T/C (dose: 4.0 mg/kg/injection, schedule: Q01DX005 (ip), vehicle: suspension in saline) was 298 % of control and the T/C (dose: 4.0 mg/kg/injection, schedule: Q#A X002 (ip), vehicle: saline) was 98 % of control and 99 % of control. For the same molecule, the T/C (dose: 5.0 mg/kg/injection, schedule: Q01DX001 (ip), vehicle: other) was 119 % of control, the T/C (dose: 5.0 mg/kg/injection, schedule: Q01DX001 (oral), vehicle: other) was 161 % of control and the T/C (dose: 7.0 mg/kg/injection, schedule: Q01DX001 (ip), vehicle: other) was 113 % of control and 119 % of control. For the same molecule, the T/C (dose: 8.0 mg/kg/injection, schedule: Q01DX001 (ip), vehicle: saline with Tween-80) was 106 % of control, the T/C [1] was 281 % of control and the T/C (dose: 8.0 mg/kg/injection, schedule: Q#A X002 (ip), vehicle: saline) was 102 % of control. The T/C (dose: 10.0 mg/kg/injection, schedule: Q01DX001 (ip), vehicle: other) was 162 % of control, the T/C (dose: 10.0 mg/kg/injection, schedule: Q01DX001 (oral), vehicle: other) was 210 % of control and the T/C (dose: 10.0 mg/kg/injection, schedule: Q07DX003 (ip), vehicle: saline) was 318 % of control. The T/C (dose: 14.0 mg/kg/injection, schedule: Q01DX001 (ip), vehicle: saline with Tween-80) was 102 % of control, the T/C (dose: 16.0 mg/kg/injection, schedule: Q01DX001 (ip), vehicle: saline with Tween-80) was 104 % of control and the T/C [4] was 106 % of control. For the same molecule, the T/C (dose: 16.0 mg/kg/injection, schedule: Q#A X002 (ip), vehicle: saline) was 102 % of control and 112 % of control, the T/C (dose: 20.0 mg/kg/injection, schedule: Q01DX001 (oral), vehicle: other) was 90 % of control and the T/C (dose: 20.0 mg/kg/injection, schedule: Q07DX003 (ip), vehicle: saline) was 117 % of control. The T/C (dose: 28.0 mg/kg/injection, schedule: Q01DX001 (ip), vehicle: other) was 100 % of control and 103 % of control, the T/C (dose: 28.0 mg/kg/injection, schedule: Q01DX001 (ip), vehicle: saline with Tween-80) was 93 % of control and the T/C (dose: 32.0 mg/kg/injection, schedule: Q01DX001 (ip), vehicle: saline with Tween-80) was 105 % of control. The T/C [5] was 102 % of control, the T/C (dose: 32.0 mg/kg/injection, schedule: Q#A X002 (ip), vehicle: saline) was 100 % of control and the T/C (dose: 56.0 mg/kg/injection, schedule: Q01DX001 (ip), vehicle: other) was 88 % of control. The T/C (dose: 56.0 mg/kg/injection, schedule: Q01DX001 (ip), vehicle: saline with Tween-80) was 93 % of control, the T/C (dose: 64.0 mg/kg/injection, schedule: Q01DX001 (ip), vehicle: saline with Tween-80) was 109 % of control and the T/C [6] was 100 % of control. The T/C [7] was 102 % of control and the T/C [8] was 104 % of control.

C1OC1CN1CCN(CC2CO2)CC1 (stereo not drawn) was tested, and the T/C (dose: 3.12 mg/kg/injection, schedule: Q01DX005 (ip), vehicle: saline) was 101 % of control, the T/C (dose: 6.25 mg/kg/injection, schedule: Q01DX005 (ip), vehicle: saline) was 97 % of control and the T/C (dose: 25.0 mg/kg/injection, schedule: Q01DX005 (ip), vehicle: saline) was 98 % of control.

With COc1cc(NS(C)(=O)=O)ccc1Nc1c2ccccc2nc2ccccc12 the T/C [2] was 93 % of control and 108 % of control, the T/C (dose: 1.0 mg/kg/injection, schedule: Q01DX005 (ip), vehicle: saline + alcohol) was 93 % of control and 108 % of control and 116 % of control and the T/C (dose: 1.0 mg/kg/injection, schedule: Q01DX005 (ip), vehicle: water) was 89 % of control and 110 % of control. For the same molecule, the T/C (dose: 2.0 mg/kg/injection, schedule: Q01DX005 (ip), vehicle: Klucel (hydroxypropylcellulose) (HPC)) was 98 % of control and 104 % of control, the T/C (dose: 2.0 mg/kg/injection, schedule: Q01DX005 (ip), vehicle: saline + alcohol) was 94 % of control and 109 % of control and 112 % of control and the T/C (dose: 2.0 mg/kg/injection, schedule: Q01DX005 (ip), vehicle: water) was 105 % of control and 108 % of control. For the same molecule, the T/C [3] was 112 % of control, the T/C (dose: 4.0 mg/kg/injection, schedule: Q01DX005 (ip), vehicle: saline + alcohol) was 90 % of control and 98 % of control and the T/C (dose: 4.0 mg/kg/injection, schedule: Q01DX005 (ip), vehicle: water) was 103 % of control and 107 % of control. For the same molecule, the T/C (dose: 4.0 mg/kg/injection, schedule: Q#A X002 (ip), vehicle: Klucel (hydroxypropylcellulose) (HPC)) was 89 % of control and 105 % of control, the T/C (dose: 8.0 mg/kg/injection, schedule: Q01DX001 (ip), vehicle: Klucel (hydroxypropylcellulose) (HPC)) was 90 % of control and 96 % of control and 106 % of control and the T/C [1] was 116 % of control. For the same molecule, the T/C (dose: 8.0 mg/kg/injection, schedule: Q#A X002 (ip), vehicle: Klucel (hydroxypropylcellulose) (HPC)) was 91 % of control and 92 % of control, the T/C (dose: 16.0 mg/kg/injection, schedule: Q01DX001 (ip), vehicle: Klucel (hydroxypropylcellulose) (HPC)) was 104 % of control (2×) and 107 % of control and the T/C [4] was 99 % of control and 113 % of control. For the same molecule, the T/C (dose: 16.0 mg/kg/injection, schedule: Q#A X002 (ip), vehicle: Klucel (hydroxypropylcellulose) (HPC)) was 90 % of control, the T/C (dose: 32.0 mg/kg/injection, schedule: Q01DX001 (ip), vehicle: Klucel (hydroxypropylcellulose) (HPC)) was 89 % of control and 101 % of control and 107 % of control and the T/C [5] was 108 % of control. The T/C (dose: 32.0 mg/kg/injection, schedule: Q#A X002 (ip), vehicle: Klucel (hydroxypropylcellulose) (HPC)) was 89 % of control and 93 % of control, the T/C (dose: 64.0 mg/kg/injection, schedule: Q01DX001 (ip), vehicle: Klucel (hydroxypropylcellulose) (HPC)) was 91 % of control and the T/C [6] was 94 % of control and 97 % of control. The T/C (dose: 64.0 mg/kg/injection, schedule: Q#A X002 (ip), vehicle: Klucel (hydroxypropylcellulose) (HPC)) was 89 % of control and 91 % of control, the T/C [7] was 90 % of control and 102 % of control and the T/C [8] was 91 % of control.

Cc1c2oc3c(C)ccc(C(=O)NC4C(=O)NC(C(C)C)C(=O)N5CCCC5C(=O)N(C)CC(=O)N(C)C(C(C)C)C(=O)OC4C)c3nc-2c(C(=O)NC2C(=O)NC(C(C)C)C(=O)N3CCC3C(=O)N(C)CC(=O)N(C)C(C(C)C)C(=O)OC2C)c(N)c1=O (stereo not drawn) (I: TV[Aze][Sar][NMeV] / II: TVP[Sar][NMeV]; ester I:1-I:C, II:1-II:C; linker I:N-II:N via Actinocin(1to9); configuration not given here) was tested, and the T/C (dose: 12.5 micrograms/kg/injection, schedule: Q01DX005 (ip), vehicle: saline) was 110 % of control, the T/C (dose: 25.0 micrograms/kg/injection, schedule: Q01DX005 (ip), vehicle: saline) was 107 % of control and the T/C (dose: 50.0 micrograms/kg/injection, schedule: Q01DX005 (ip), vehicle: saline) was 101 % of control. For the same molecule, the T/C (dose: 100.0 micrograms/kg/injection, schedule: Q01DX005 (ip), vehicle: saline) was 111 % of control.
